Test results published in patent USRE34918E, “Azaazulene compounds which are useful as antiallergic and antiinflammatory agents” (Kaken Pharmaceutical Co., Ltd., priority 1988, dated 1995).
≈ marks a conversion by molar mass, not a printed value.

How the values were obtained:
[1] = system: smooth musculus trachealis; experiment: Relaxant activity of smooth musculus trachealis in guinea pig; parameters: species or system guinea pig (male Hartley); settings: Cavia porcellus; tracheal chain strips, 37° C.; read-out: Concentration for 50% relaxation
Method: Male Hartley guinea pigs weighing 350 to 550 g were bleed to death, and immediately the tracheae were extirpated. According to the method of Takagi et al [cf. Chem. Pharm. Bull., 8, 716 (1958)], tracheal chain strips was prepared, and the sample was suspended on Magnus apparatus under addition of load of 0.5 g. The test was carried out at 37° C. of liquid temperature. After position of tonus was examined with histamine (10^-6 g/ml) and isoproterenol (10^-7 g/ml), the test compound dissolved in a mixture of dimethyl sulfoxide and physiological saline was added thereto, and the test compound was investigated with respect to the effect on smooth musculus trachealis. Theophylline was used as a positive comparative drug. The relaxation and the contraction of smooth musculus trachealis were recorded on servocorder (SR 6342: commercially available from Watanabe Instruments Corp.) by connecting Isotonic Transducer (TD-1125: commercially available from Nihon Kohden Kogyo Co., Ltd.) to a balancing box.

[2] = system: histamine release from rat mast cell; experiment: Inhibitory activity against histamine release from rat mast cell; type: cell-based; settings: 10 μg/ml, read-out: Inhibitory rate against histamine release
Method: An anti-dinitrophenylated-ovalbumin (anti DNP-OVA) rat antiserum having 800 of PCA titer in homologous passive cutaneous anaphylaxis reaction in rats for 48 hours was diluted double with physiological saline, and 1 ml of diluted antiserum was injected intraperitoneally into rats to be passively sensitized. On the next day, peritoneal exudation cell (hereinafter referred to as "PEC") was collected. The collected PEC was washed with a medium containing 0.1% BSA, and 1.5×10^5 of the PEC were added to each test tube. AFter incubation at 37° C. for 10 minutes, 50 μl of test compound solution in a same medium was added thereto. After 30 seconds, 50 μl of antigen solution (DVA-OVA 100 μg/ml) was further added thereto to give the total amount of 500 μl of the reaction mixture, and histamine release reaction was induced. After 10 minutes, 1 ml of physiological saline with cooled Tris buffered solution containing 1 mM EDTA were added thereto to stop the reaction. After centrifugation, the amount of histamine in supernatant was determined by fluorescence method according to the method of Shore et al [cf. J. Pharmacol. Exp. Ther., 127, 182 (1959)]. Inhibition rate against histamine release was calculated according to the following equation.
Inhibition rate against histamine release [formula] M: Amount of histamine in supernatant under addition of antigen and non-addition of test compound
S: Amount of histamine in supernatant under addition of antigen and test compound
B: Amount of histamine in supernatant under non-addition of antigen and test compound.
The test compound was used in a concentration of 10 μg/ml.

[3] = molecular target: T1, 5-lipoxygenase (Cavia porcellus, UniProt A0A286X958); experiment: 5-lipoxygenase inhibiting activity in guinea pig; type: biochemical; settings: read-out: Inhibition rate against 5-lipoxygenase activity
T1 construct: 5-lipoxygenase was prepared with polymorphonuclear leukocyte obtained from peritoneal cavity; endogenous in cells; host or cells: guinea pig peritoneal polymorphonuclear leukocytes (casein-elicited)
T1 sequence (A0A286X958 1-674): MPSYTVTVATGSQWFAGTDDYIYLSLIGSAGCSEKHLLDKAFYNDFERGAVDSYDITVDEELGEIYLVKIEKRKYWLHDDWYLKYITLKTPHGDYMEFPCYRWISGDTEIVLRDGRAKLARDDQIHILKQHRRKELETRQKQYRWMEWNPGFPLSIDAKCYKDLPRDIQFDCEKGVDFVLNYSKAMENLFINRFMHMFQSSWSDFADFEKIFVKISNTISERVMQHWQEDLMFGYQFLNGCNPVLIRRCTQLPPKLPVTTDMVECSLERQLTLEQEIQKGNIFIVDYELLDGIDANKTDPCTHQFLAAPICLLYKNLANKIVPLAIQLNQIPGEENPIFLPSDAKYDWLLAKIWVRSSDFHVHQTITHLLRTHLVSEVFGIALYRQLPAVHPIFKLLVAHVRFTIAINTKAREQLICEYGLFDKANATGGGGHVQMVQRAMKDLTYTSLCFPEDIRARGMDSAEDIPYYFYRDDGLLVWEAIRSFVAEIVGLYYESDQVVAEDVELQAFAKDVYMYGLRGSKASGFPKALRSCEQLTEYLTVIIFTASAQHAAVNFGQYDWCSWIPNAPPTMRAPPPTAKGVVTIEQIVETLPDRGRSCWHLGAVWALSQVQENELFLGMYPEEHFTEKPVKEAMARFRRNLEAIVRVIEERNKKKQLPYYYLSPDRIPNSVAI
Method: The test was carried out according to the method of Ochi [cf. J. Biol. Chem., 258, 5754-5758 (1983)]. Two % casein solution in saline was injected intraperitoneally into guinea pigs in an amount of 1/10 of body weight. After 16 hours, 5-lipoxygenase was prepared with polymorphonuclear leukocyte obtained from peritoneal cavity. Test compound and 5-lipoxygenase were pre-incubated at 30° C. for 10 minutes, CaCl2 (calcium chloride) and ^14 C-arachidonic acid were added thereto, and the resulting mixture was incubated for 20 minutes. A mixture of ethyl acetate/methanol/0.2M citric acid=30/4/1 (by volume) was added thereto to stop the reaction. After centrifugation, the organic solvent layer was spotted on a plate for thin layer chromatography and developed. Effect of the test compound was determined from the amount of ^14 C-5-hydroxyeicosatetraenoic acid (hereinafter referred to as "5-HETE") formed from ^14 C-arachidonic acid. Radioactivity of 5-HETE position was measured with a liquid scintillation counter.
Inhibition rate against 5-lipoxygenase activity was calculated according to the following equation.
Inhibition rate against 5-lipoxygenase activity [formula] A: Value of radioactivity in the control group B: Value of radioactivity in the test compound group
Each test compound was used in a concentration of 10 μM.

[4] = system: PCA (homologous passive cutaneous anaphylaxis) in rat; experiment: Inhibitory activity against PCA in rat; type: in vivo, rat (male Slc: Wistar); settings: 5 mg/kg oral, 1 hour before antigen challenge; for inhibition in vivo at 5 mg/kg: Rattus norvegicus, read-out: Inhibition rate against PCA
Method: An anti-dinitrophenylated-ovalbumin (hereinafter referred to as "anti-DNP-OVA") rat antiserum having 800 of PCA titer in homologous passive cutaneous anaphylaxis reaction in rats for 48 hours, was diluted 200 times with physiological saline, and diluted antiserum was injected intradermally into back of groups of 5 male Slc: Wistar rats weighing 130-150 g in a volume of 50 μl/site to be passively sensitized. After 48 hours, 0.6 ml of 1% (w/v) Evans blue solution containing 1.5 mg of antigen DNP-OVA was administered intravenously into the tail. Thirty minutes later, the rats were bled to death and skin of the rats was removed. According to the method of Katayama et al [Microbiol. […] The test compound was suspended in 0.5% (w/v) aqueous solution of carboxymethylcellulose (hereinafter referred to as "CMC"), the suspension was administered orally in a ratio of 5 mg/kg 1 hour before challenging an antigen.
Inhibition rate against PCA was calculated according to the following equation. [formula] M: Amount of leaked pigment in antibody-sensitized site under administration of CMC without the test compound
S: Amount of leaked pigment in antibody-sensitized site under administration of the test compound in CMC
B: Amount of leaked pigment in antibody-nonsensitized site

[5] = Acute toxicity in mouse; type: in vivo; settings: 2 weeks observation
Method: The test was carried out with the compounds obtained in Examples 5 and 9. Groups of 5 male ddy mice weighing 26 to 28 g were employed. The test compounds were suspended in a 0.5% CMC aqueous solution and the resulting suspension was administered orally in an amount of 500 for the compound obtained in Example 9, 1000 or 2000 mg/kg body weight. The survivors were kept under observation daily for 2 weeks. From the results shown in Table 6, the LD50 of the compounds obtained in Example 5 and 9 were estimated to be more than 2000 mg/kg. The other compounds of the present invention also had the same toxicity as the above compounds.

EC50 [1]	inhibition at 10 µM [3]	Compound	inhibition at 10 µg/mL [2]	inhibition in vivo at 5 mg/kg [4]	other results
6.6 µg/mL (≈ 19.1 µM)	-1.1%	CC(C)c1cccc2n(Cc3ccccc3)c(=O)c(-c3nnn[nH]3)c-2c1 [Example 4, 5-Iso-propyl-1-benzyl-3-(5-tetrazolyl)-1-azaazulane-2-one]	84.4%	78.2 ± 4.1%	
		CCCCn1c2cccccc-2c(-c2nnn[nH]2)c1=O [Example 17]	89.5%	-1.9 ± 9.2%	
13.1 µg/mL (≈ 32.6 µM)	27%	CC(C)c1cccc2n(CCCCCc3ccccc3)c(=O)c(-c3nnn[nH]3)c-2c1 [Example 6, 5-Iso-propyl-1-(5-phenylpentyl)-3-(5-tetrazolyl)-1-azaazulane-2-one]	6.3%		
44 µg/mL (≈ 141 µM)		CCCCn1c2cccc(C(C)C)cc-2c(-c2nnn[nH]2)c1=O [Example 19]	83.4%		
25 µg/mL (≈ 97.9 µM)		CC(C)c1cccc2c(-c3nnn[nH]3)c(=O)[nH]c-2c1 [Example 2, 7-Iso-propyl-3-(5-tetrazolyl)-1-azaazulane-2-one]	81.4%		
		5(3-Butyloxyallylaminophenyl)-1H-tetrazole [WP-833, reference compound]			Inhibition rate against PCA [4]: 42.8 ± 5.1%
	18.3%	O=c1c(-c2nn[nH]n2)c2cccccc-2n1CSc1ccccc1 [Example 44]	85%		
47 µg/mL (≈ 184 µM)		CC(C)c1cccc2[nH]c(=O)c(-c3nnn[nH]3)c-2c1 [Example 1, 5-Iso-propyl-3-(5-tetrazolyl)-1-azaazulane-2-one]	78.6%		
52 µg/mL (≈ 266 µM)		N#Cc1c2cccccc-2nc1N=[N+]=[N-] [Example 60, 2-Azido-3-cyano-1-azaazulene]	65.3%	-27 ± 17.7%	
	31.7%	O=C(O)c1ccc(Cn2c3cccccc-3c(-c3nn[nH]n3)c2=O)cc1 [Example 38]	24.4%		
	17.3%	CC(C)c1cccc2c(-c3nn[nH]n3)c(=O)n(CCCc3ccccc3)c-2c1 [Example 29]	99.5%		
7.8 µg/mL (≈ 20.9 µM)	12.2%	CC(C)c1cccc2n(CCCc3ccccc3)c(=O)c(-c3nn[nH]n3)c-2c1 [Example 30]	99.5%	10.8 ± 11.1%	
42.3 µg/mL (≈ 94.5 µM)	-2.6%	CCCc1c(OCCCn2c3cccccc-3c(-c3nn[nH]n3)c2=O)ccc(C(C)=O)c1O [Example 49]	62.8%		
28 µg/mL (≈ 89.9 µM)		CCCCn1c2cc(C(C)C)cccc-2c(-c2nnn[nH]2)c1=O [Example 18]	86.9%		
	63.2%	O=c1c(-c2nnn[nH]2)c2cccccc-2n1Cc1ccccc1 [Example 3, 1-Benzyl-3-(5-tetrazolyl)-1-azaazulane-2-one]	84.9%	98.6 ± 3.5%	
	41.8%	O=c1c(-c2nn[nH]n2)c2cccccc-2n1CCc1ccc(O)c(O)c1 [Example 46]	57.6%		
	5.2%	N#Cc1c2cccccc-2nc1NCC(=O)O [Example 62, 3-Cyano-2-carboxymethylamino-1-azaazulene]	82.5%	14 ± 4.3%	
		Cc1ccc2c([nH]c(=O)c3c(=O)cc(C(=O)OCCC(C)C)oc32)c1C [repirinast, Isopentyl 5,6dihydro-7,8-dimethyl-4,5-dioxo-4Hpyrano[3,2c]quinoline2-carboxylate, reference compound]		36.2 ± 5.8%	
12.4 µg/mL (≈ 35.8 µM)	-9.4%	CC(C)c1cccc2n(Cc3ccccn3)c(=O)c(-c3nnn[nH]3)c-2c1 [Example 13, 5-Iso-propyl-1-(2-pyridylmethyl)-3-(5-tetrazolyl)-1-azaazulane-2-one]	91.5%		
	-7.2%	O=c1c(-c2nn[nH]n2)c2cccccc-2n1CCOc1ccccc1 [Example 43]	65.3%		
	34.9%	O=c1c(-c2nn[nH]n2)c2cccccc-2n1Cc1ccc(C(F)(F)F)cc1 [Example 35]	54.1%		
43 µg/mL (≈ 160 µM)		CC(C)c1cccc2c(-c3nnn[nH]3)c(=O)n(C)c-2c1 [Example 16]	88.3%		

Compound	EC50 [1]	inhibition at 10 µM [3]	inhibition at 10 µg/mL [2]	inhibition in vivo at 5 mg/kg [4]	other results
Cn1c(=O)c2[nH]cnc2n(C)c1=O [theophylline, reference compound]	6.8 µg/mL (≈ 37.7 µM)				
CC(C)c1cccc2c(-c3nnn[nH]3)c(=O)n(Cc3ccccc3)c-2c1 [Example 5, 7-Iso-propyl-1-benzyl-3-(5-tetrazolyl)-1-azaazulane-2-one]	1.2 µg/mL (≈ 3.47 µM)	1.5%	81.1%	94.8 ± 5.1%	Mortality ([5]; 1000 mg/kg p.o.): 0/5; Mortality ([5]; 2000 mg/kg p.o.): 0/5; LD50 at 336 h ([5]; mouse, in vivo, oral): > 2000 mg/kg
